Columns and labels:
[1] = target: T1, LiGAPDH (Leptospira interrogans, UniProt Q72QM3); test: NADH formation at […] nm, nonlinear fit; format: biochemical; details: substrate inhibition constant, 2 mM NAD+, 40 mM Tris-HCl pH 8.5, 2 mM EDTA, 25 °C
T1 construct: gene gapA; full-length, N-terminal His6 tag and TEV site (pETM-11), expressed in E. coli Rosetta(DE3); homotetramer; 36648 Da subunit

[2] = target: T1, LiGAPDH; test: NADH formation at […] nm, initial rates, nonlinear fit; format: biochemical
[3] = target: T1, LiGAPDH; test: X-ray crystal structure, […] Å; format: binding; details: active site, N-terminal Rossmann domain, all eight subunits

T1 sequence (Q72QM3 entry or part of it): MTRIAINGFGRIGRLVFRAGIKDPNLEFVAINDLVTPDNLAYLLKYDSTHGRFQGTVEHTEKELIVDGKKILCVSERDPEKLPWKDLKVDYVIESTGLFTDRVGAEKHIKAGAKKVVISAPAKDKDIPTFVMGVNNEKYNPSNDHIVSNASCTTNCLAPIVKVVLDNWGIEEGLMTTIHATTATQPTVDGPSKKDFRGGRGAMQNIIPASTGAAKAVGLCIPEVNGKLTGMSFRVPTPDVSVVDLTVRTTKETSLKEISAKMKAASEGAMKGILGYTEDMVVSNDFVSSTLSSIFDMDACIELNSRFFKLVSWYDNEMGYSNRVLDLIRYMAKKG

O=C[C@H](O)COP(=O)(O)O [G3P]
KSS ([1]; 5 mM phosphate): 2.0 ± 0.3 mM

COc1cc(/C=C/C(=O)CC(=O)/C=C/c2ccc(O)c(OC)c2)ccc1O [curcumin]
Ki [2]: 59 ± 3 µM

O=P(O)(O)O [Pi]
KSS ([1]; 2 mM G3P): 10 ± 1 mM

CCCCCCCCCCCCCCCc1cccc(O)c1C(=O)O [anacardic acid]
Ki [2]: 41 ± 2 µM

NC(=O)c1ccc[n+]([C@@H]2O[C@H](COP(=O)(O)OP(=O)(O)OC[C@H]3O[C@@H](n4cnc5c(N)ncnc54)[C@H](O)[C@@H]3O)[C@@H](O)[C@H]2O)c1 [NAD^+]
X-ray crystal structure, 2.37 Å [3]: The crystal structure corresponds to the holoenzyme with an NAD^+ molecule tightly bound into the active

— PMC10318897, “The structure of Leptospira interrogans GAPDH sheds light into an immunoevasion factor that can target the anaphylatoxin C5a of innate immunity” (Frontiers in Immunology, 2023)
